# Results reported in US20200056157A1, “LIVER ORGANOID DISEASE MODELS AND METHODS OF MAKING AND USING SAME” (Children's Hospital Medical Center, priority 2016, published 2020).
# What was measured:
# [1] = test system: human liver organoid (HLO); test: Lipids live-cell imaging (BODIPY, membrane dye) of FFA treated HLO; type: cell-based; conditions: for effectiveness in inducing lipid accumulation among FFAs (OA, LA, PA, SA): 800 μM, 3 days after FFA exposure, BODIPY
# Excerpt: Currently, free fatty acids (FFA) are widely used as an initiating factor to establish an in vitro lipotoxic hepatocyte model; however, fat accumulation is the only phenotype (Kanuri and Bergheim, 2013). […] Given the presence of hepatocyte-, stellate- and Kupffer-like cells with lipid metabolism function-associated genes indicated by global transcriptome analysis, Applicant hypothesized that FFA exposure naturally triggers an inflammation response and resulting fibrotic response in HLO. To test this hypothesis, Applicant treated HLO for 3 to 5 days with FFA. […] To first compare the effect of multiple FFAs including oleic acid (OA, 18:1 n9), linoleic acid (LA, 18:2), palmitic acid (PA, 16:0), and stearic acid (SA, 18:0) on lipids accumulation, live-cell imaging was performed with lipid dye BODIPY at 3 days after the FFA exposure. […] Considering that OA triggers massive lipid accumulation, the concentration of OA was varied (0, 200, 400, and 800 μM) to trigger inflammatory reaction in sHLO. […] In addition to increase in lipid accumulation, the size of lipid droplets was enlarged (FIG. 4, B). Hepatocyte ballooning (enlargement) was one of the pathological grading indicators to determine the nonalcoholic steatohepatitis (NASH) activity (NAS scoring), which was confirmed in 800 μM OA treated sHLO by live imaging of cellular membrane (FIG., 4B). Triglycerides, a main constituent of lipids accumulated in the liver, were also detected in 800 μM treated sHLO, but not in untreated sHLO (FIG. 4, D). […] As FIG. 9 indicates, neither E-cad positive nor negative cells derived spheroids produced P3NP and IL-6 secreted production and overexpressed the gene expression of inflammatory markers.
# (§1) Phagocyte, lipids, ROS live-cell imaging. After being cultured in an ultra-low attachment 6 multi-well plate, 5-10 HLO were picked up and seeded in a Microslide 8 Well Glass Bottom plate (Ibidi, WI, USA) and subjected to live-cell staining. The following antibodies were used: pHrodo® Red S. aureus Bioparticles® Conjugate for Phagocyte activity (Thermo Fisher Scientific Inc.), BODIPY® 493/503 for lipids (Thermo Fisher Scientific Inc.), Di-8-ANEPPS for membrane (Thermo Fisher Scientific Inc.), and CellROX green reagent for ROS detection (Thermo Fisher Scientific Inc.). […] The final lipid droplet volume was calculated by IMARIS8 and normalized by each organoid size. Significance testing for lipid droplet volume and ROS production (%) was conducted by Student's t-test.
# LPS and FFA exposure and OCA and FGF19 treatment. 20-30 HLO, which had been isolated from Matrigel and washed by 1×PBS, were divided into each condition and cultured on an ultra-low attachment 6 multi-well plates (Corning). HLO were cultured with LPS (Sigma), OA (Sigma), LA (Sigma), SA (Sigma), or PA (Sigma) and collected at day 1 and 3 (for LPS HLO) and at day 3 and 5 (for OA) after the culture. To test the inhibitory effect of OCA (INT-747, MedChem Express, NJ, USA) and human FGF19 recombinant (Sigma) on HLO, 20-30 HLO were cultured in HCM media in the presence or absence of oleic acid (800 μM), and 1 μM OCA and 40 ng/ml FGF19 were added into 800 μM OA condition. HLO were collected at day 3 for lipids live-cell imaging and at day 5 for stiffness measurement.
# [2] = test system: human iPSC-liver organoid; test: Albumin ELISA of organoid culture supernatant; type: cell-based; conditions: 4 days RA; supernatant collected in 24 hrs
# Procedure: (§2) Albumin, IL-6, and P3NP ELISA. To measure albumin secretion level of HLO, 200 μL of culture supernatant was collected from HLO embedded in Matrigel. For IL-6 and P3NP, 20-30 organoids were seeded and cultured on an ultra-low attachment multiwell plates 96 well plate (Corning). To define the exact number of organoids in each well and lastly normalize the secreted level for IL-6 and P3NP by the number, the organoids were captured on The KEYENCE BZ-X710 Fluorescence Microscope. The culture supernatants were collected at 24 hrs (for albumin), 96 hrs (for IL-6) and 120 hrs (P3NP) time points after the culture and stored at −80° C. until use. The supernatant was centrifuged at 1,500 rpm for 3 min and to pellet debris, and the resulting supernatant was assayed with Human Albumin ELISA Quantitation Set (Bethyl Laboratories, Inc., TX, USA), Human IL-6 ELISA Kit (Biolegend, CA, USA), and Human N-terminal procollagen III propeptide, PIIINP ELISA Kit (My BioSource, CA, USA) according to the manufacturer's instructions. Significance testing was conducted by Student's t-test.
# [3] = test system: human iPSC-liver organoid; test: RA-based liver organoid differentiation (organoid number, size, luminal structure); type: cell-based; conditions: 4 days RA
# Excerpt: To elucidate whether RA signaling has an impact on determining the lineage differentiation towards stromal cells, Applicant established a liver organoid model from human iPSCs by transient induction of RA. Applicant initially differentiated iPSCs to foregut spheroids through definitive endoderm (DE) specification as previously described (Spence et al., 2011). The foregut spheroids were mixed with the attached cells grown in the same well, and the mixture was embedded in Matrigel. […] The number of organoids was increased 1.8-fold in RA treated wells compared to untreated and the size was increased 1.5-fold after RA treatment (FIG. 1, B, C, and D). […] Of note, albumin secretion was maintained more than 40 days after day 20 when albumin was first detected (data not shown).
# HLO induction. At day 7, spheroids and attached cells are gently pipetted to be delaminated from dishes. They were centrifuged at 800 rpm for 3 minutes, embedded in a 100% Matrigel drop on the dishes in Advanced DMEM/F12 with B27, N2 and 2 uM retinoic acid (RA; Sigma, MO, USA) after removing supernatant, and cultured for 4 days. After RA treatment, spheroids embedded in the Matrigel drop were cultured in Hepatocytes Culture Medium (HCM; Lonza, MD, USA) with 10 ng/mL hepatocyte growth factor (HGF; PeproTech, NJ, USA), 0.1 uM Dexamethasone (Dex; Sigma) and 20 ng/mL Oncostatin M (OSM; R&D Systems). Cultures for HLO induction were maintained at 37° C. in 5% CO2 with 95% air and the medium was replaced every 2-3 days. To analyze HLO (day 20-30), organoids were isolated from Matrigel by scratching and pipetting.
# [4] = test system: human liver organoid (HLO); test: Triglyceride assay; type: cell-based; conditions: 800 μM OA, 3 days
# Procedure: Triglyceride assay. For quantitative determination of triglycerides, HLO were isolated from one Matrigel drop and divided into HCM media in the presence or absence of oleic acid (800 μM). They were cultured on an ultra-Low attachment 6 multi-well plate for three days. Quantitative estimation of hepatic triglyceride accumulation was performed by an enzymatic assay of triglyceride mass using the EnzyChrom Triglyceride assay kit (Bioassay Systems, CA, USA).
# [5] = test system: TNF-alpha; test: RT-qPCR of pro-inflammatory cytokine TNF-alpha in HLO; type: cell-based, human; conditions: 200 μM or 800 μM OA, normalized by 18S
# Procedure: (§3) RNA isolation, RT-qPCR. RNA was isolated using the RNeasy mini kit (Qiagen, Hilden, Germany). Reverse transcription was carried out using the SuperScriptIII First-Strand Synthesis System for RT-PCR (Invitrogen, CA, USA) according to manufacturer's protocol. qPCR was carried out using TaqMan gene expression master mix (Applied Biosystems) on a QuantStudio 3 Real-Time PCR System (Thermo Fisher Scientific Inc.). All primers and probe information for each target gene was obtained from the Universal ProbeLibrary Assay Design Center (https://qpcr.probefinder.com/organism.jsp). Significance testing was conducted by Student's t-test.
# [6] = test system: human liver organoid (HLO); test: HLO stiffness measurement by AFM; type: cell-based
# Excerpt: Applicant's preliminary qualitative analysis of smooth muscle actin immunostaining indicates dose dependent fibrosis progression by OA exposure (FIG. 2, H, I, and J). To gain more quantitative insights in a screenable format, Applicant thus assessed in the living state whether HLO fibrosis could increase the stiffness in a dose dependent fashion using micro-indentation with Atomic Force Microscopy (AFM). […] The Emedian values were 1.2 kPa, 1.6 kPa, 2.4 kPa and 2.8 kPa for 0, 200, 400, and 800 μM OA-treated organoids, respectively. Furthermore, difference between 90th percentile and 10th percentile (ΔP90-10) was 3.2 kPa for untreated organoids and 7.0 kPa for 800 μM OA-treated organoids was observed.
# HLO stiffness measurement by AFM. HLOs treated with […] were used for stiffness measurement with a AFM (NanoWizard IV, JPK Instruments, Germany). The AFM head with a silicon nitride cantilever (CSC37, k=0.3 N/m, MikroMasch, Bulgaria) was mounted on a fluorescence stereo microscope (M205 FA, Leica, Germany) coupled with a Z-axis piezo stage (JPK CellHesion module, JPK Instruments, Germany), which allows the indentation measurement up to the depth of ˜100 μm. As a substrate for organoids, a fibronectin-coated dish was used. The tissue culture dish (p=34 mm, TPP Techno Plastic Products, Switzerland) was first incubated with a 1 μg/mL fibronectin solution (Sigma)) at 4° C. for overnight. Then, the tissue culture dish was washed twice by distilled water and dried for 1 hour. Thereafter, HLOs incubated with […] were deposited to the fibronectin-coated dish and incubated for 1 hour at 37° C. The sample dish was then placed onto the AFM stage, and force-distance curves in a 14×14 matrix in a 25×25 μm square were measured from each HLO. Finally, Young's moduli (E, Pa) of HLO were determined by fitting the obtained force-distance curves with the modified Hertz model (Sneddon, 1965). Dunn-Holland-Wolfe test was performed for significance testings.
# [7] = test system: IL-8; test: RT-qPCR of pro-inflammatory cytokine IL-8 in HLO; type: cell-based, human; conditions: 200 μM or 800 μM OA, normalized by 18S
# Procedure: as §3
# [8] = test system: P3NP; test: P3NP ELISA of HLO culture supernatant; type: cell-based, human; conditions: 800 μM OA, day 5
# Procedure: as §2
# [9] = test system: human liver organoid (HLO); test: Masson trichrome stain of HLO; type: cell-based
# Procedure: To further determine whether HLO progresses towards fibrosis-like condition, Applicant performed Masson trichrome stain on sHLO and cHLO. […] Moreover, ELISA of […] was also measured at day 5 of OA exposure. […] secretion was increased 2.8-fold in the culture media of 800 μM OA treated HLO when compared with the untreated (FIG. 4, J).
# [10] = test system: THP-1; test: THP-1 cell migration assay with HLO conditioned media; type: cell-based, human; conditions: OA-treated sHLO conditioned media (400, 800 μM OA), 24 hrs in transwells
# Procedure: THP-1 cell migration assay. THP-1 cell, which was gifted from T. Suzuki, was maintained in Advanced DMEM/F12 (Thermo Fisher Scientific Inc.) containing 10% FBS. THP-1 floating cells were collected, and 200,000 cells were added with serum-free Advanced DMEM/F12 to the membrane chamber of the CytoSelect™ 96-Well Cell Migration Assay (5 μm, Fluorometric Format; Cell Biolabs, CA, USA). 10-20 HLO were cultured in HCM media including 0, 400, 800 uM OA with an ultra-low attachment 96 multi-well plate (Corning) for three days. To define the exact number of organoids in each well and lastly normalize the final migrated cells by the number, the organoids were captured on The KEYENCE BZ-X710 Fluorescence Microscope. 150 μL of culture supernatant of HLO was collected and added to the feeder tray of the kit. The kit was incubated at 37° C. for 24 h in a 5% CO2 cell culture incubator. Cells that had migrated were counted using Countess II FL Automated Cell Counter (Thermo Fisher Scientific Inc.). Significance testing was conducted by Student's t-test.
# [11] = test system: IL-6; test: IL-6 ELISA of HLO culture supernatant; type: cell-based, human; conditions: 800 μM OA treated sHLO culture media
# Procedure: as §2
# [12] = test system: liver organoids; test: ROS live-cell imaging of liver organoids; type: cell-based, human
# Excerpt: as §1
smiles,measurement,setting,value
"CCCCCCCCCCCCCCCCCC(=O)O [SA, stearic acid]","effectiveness in inducing lipid accumulation among FFAs (OA, LA, PA, SA)",[1],least effective
"CC1=C(/C=C/C(C)=C/C=C/C(C)=C/C(=O)O)C(C)(C)CCC1 [RA, retinoic acid]",albumin secretion,[2],3.0 to 6.5 µg/mL
same,"number of organoids, increase compared to untreated",[3]; day 20,1.8 fold
same,"organoid size, increase after treatment",[3]; day 20,1.5 fold
same,organoids with internal luminal structure,[3]; day 25,95%
"CCCCCCCC/C=C\CCCCCCCC(=O)O [OA, oleic acid]",triglycerides,[4],detected
same,TNF-alpha gene expression increase,[5],2 fold
same,"Young's modulus, Emedian",[6]; 200 μM OA,1.6 kPa
same,"Young's modulus, Emedian",[6]; 400 μM OA,2.4 kPa
same,"Young's modulus, Emedian",[6]; 800 μM OA,2.8 kPa
same,difference between 90th percentile and 10th percentile (ΔP90-10) of Young's modulus,[6]; 800 μM OA,7.0 kPa
same,IL-8 gene expression increase,[7],10 fold
same,P3NP secretion compared with the untreated,[8],2.8 fold
same,trichrome positive HLO,[9]; cHLO (OA 5 days),significantly increased
same,trichrome positive HLO,[9]; sHLO (OA 3 days),not observed
same,"THP-1 migration cells, increase",[10],up to 2 fold
same,IL-6 secretion compared to the untreated,[11],2.2 fold
same,"lipid accumulation, increase in sHLO","[1]; 0, 200, 400, 800 μM OA, 3 days, dose dependent",up to 18 fold
same,hepatocyte ballooning (enlargement),"[1]; 800 μM OA treated sHLO, live imaging of cellular membrane",confirmed
same,"effectiveness in inducing lipid accumulation among FFAs (OA, LA, PA, SA)",[1],most effective
same,size of lipid droplets,"[1]; OA treated sHLO, 3 days",enlarged
Oc1ccc(C=Cc2cc(O)cc(O)c2)cc1 [resveratrol],effect on ROS production of liver organoids,[12],No effectiveness
